Measured values published in paper PMC6406907, “A H2AX–CARP-1 Interaction Regulates Apoptosis Signaling Following DNA Damage” (Cancers, 2019).
No end group written: not given here. HA = not defined here

Key:
MDA-MB-468 cells [1] = details: 10 μM dose, ref [16]; cited from earlier work
Text: Here, we utilized human TNBC MDA-MB-468 and human cervical cancer HeLa cells to conduct an MTT-based dose-response analysis using Adriamycin and CFM compounds. […] Since Adriamyci ...

MDA-MB-468 cells [2] = assay: Transduction/localization of TAT-tagged proteins, MDA-MB-468; format: cell-based, human; details: MDA-MB-468, 300 μg/mL, confocal
Procedure: (§1) Cells were plated onto chamber slides one day before treatment. Following treatment of cells with respective compounds, the adherent cells were fixed with 5% formaldehyde for 10 min and then washed with phosphate buffered saline (PBS). Samples were blocked (0.5% NP-40, 5% milk powder, 1% fetal bovine serum) for 30 min. After a single wash with PBS, cells were incubated with primary antibodies for 45 to 60 min. Coverslips were washed with PBS and then incubated with secondary antibodies for another 45 to 60 min. They were then washed with PBS and mounted with 0.1 μg/mL 4′,6′-diamidino-2-phenylindole (DAPI) containing mounting solution. […]
(§2) We further tested whether and the extent to which transient and ectopic expression of CARP-1 (636–650) peptide would also interfere with the cell-growth inhibition by Adriamycin. […] The wild-type MDA-MB-468 or HeLa cells were pre-incubated with His-TAT-HA-EGFP or His-TAT-HA-CARP-1 (636–650) proteins, and presence of GFP and CARP-1 (636–650) was determined by immuno-cytochemical staining followed by photography using a confocal microscope as above. […]
(§3) Figure S9. […] Multiple cells from each of the confocal images in the γH2AX column of Figure 8C were subjected to quantitation for levels of γH2AX. The quantitation of the images of stained cells was carried out by using ImageJ software (imagej.nih.gov/ij/plugins/track/jacop2). […]

HeLa cells = assay: Transduction/localization of TAT-tagged proteins, HeLa; format: cell-based, human; details: 300 μg/mL, confocal
Procedure: as §1, §2, §3

Compound	inhibition of growth (MDA-MB-468 cells [1])	cellular localization after transduction (MDA-MB-468 cells [2])	cellular localization after transduction (HeLa cells)
O=C1N(Cc2ccccc2Cl)c2ccccc2C12NN=C(c1cccc(Cl)c1)S2 (stereo not drawn) [CFM-4.16]	robust inhibition of growth		
His-TAT-HA-CARP-1 (636–650): His-TAT-HA-tagged CARP-1 (636–650) peptide, >95% purity, commercially synthesized ({His-TAT-HA}-PKTMKVNDLRKELES; reading uncertain; UniProt Q8IX12 636-650, looked up, fragment)		predominantly present in the cytoplasmic region	predominantly present in the cytoplasmic region
